Assay results: patent US20250206779A1, “ANGIOTENSIN-(1-9) ANALOGUE BASED ON D AMINO ACIDS, PHARMACEUTICAL COMPOSITIONS AND USES THEREOF” (UNIVERSIDAD DE CHILE, priority 2021, published 2025)
Where a SMILES comes first, the peptide text is derived from it. [ ]: non-standard residue; d: D form.

Columns and labels:
cardiomyocytes = test: Norepinephrine-induced cardiomyocyte hypertrophy, cell area and perimeter; assay type: cell-based, rat; settings: 100 μM peptide, norepinephrine 10 μM
Experimental: Cardiac myocytes were isolated from neonatal Sprague-Dawley rat ventricles. Cardiac myocytes were plated at 70% final density in gelatin-coated wells (12-well plates) or in 60-mm Petri dishes and maintained at 37° C. in a humidified atmosphere of 5% CO2/95% air for 24 h in Dulbecco's Modified Eagle's medium [(DMEM)/M199](4:1) containing 10% fetal bovine serum and 5% fetal calf serum. Serum was withdrawn 24 h before preincubation with 1, 10 or 100 μM retro-inverse angiotensin-(1-9) for 1 h; then, 10 μM norepinephrine (Sigma, St Louis, Missouri, USA) were added and the cultures were incubated for 24 h. […] After centrifugation at 12,000 r.p.m. for 15 min at 4° C., the supernatat was recovered; total protein content was determined by using Bradford (BioRad protein assay, BioRad, Hercules, CA, USA). […]
Cardiomyocyte hypertrophy is characterized by an increase of cell area and perimeter. Cell area and perimeter were analyzed as follows. […] Cell area and perimeter were determined in cells fixed with 4% paraformaldehyde for 10 min and permeabilized with 0.2% Triton X100 for 6 min. […] Cell staining was evaluated by epifluorescence microscopy. At least 100 cells from randomly selected fields were analyzed using Image J software (NIH). […]

[1] = tested on: spontaneously hypertensive rats (SHR); test: Blood pressure in spontaneously hypertensive rats; assay type: in vivo, rat; settings: SHR, 300, 600, 1200 ng/kg/min, osmotic minipumps, 14 days
Experimental: (§1) Experimental animal model. All procedures were performed in accordance with the Guide for the Care and Use of Laboratory Animals published by the U.S. National Institutes of Health (NIH Publication 85 23, 1985) and approved by our Institutional Bioethics Committee. The animals were housed under the continuous professional monitoring of the Medical Veterinary staff in the animal facility of the Pontificia Universidad Católica de Chile, under the following conditions: 12-h light-dark cycle; 21° C. ambient temperature; 50% humidity; adequate ventilation; noise-free environment; and food and water ad libitum. Male spontaneously hypertensive rats (SHR, age 12 weeks) and normotensive Wistar Kyoto rats (WKY, 12 weeks age) were used. […] Systolic blood pressure (SBP), diastolic blood pressure (DBP) and body weight (BW) were measured at the end of the treatment period and the animals were then sacrificed.
Hemodynamic evaluations. SBP and DBP were measured twice per week by a researcher blinded to study group, using a CODA 2 noninvasive pressure device with volume-pressure recording (Kent Scientific Corporation, Torrington, CT, USA). […]

[2] = tested on: spontaneously hypertensive rats (SHR); test: Cardiac hypertrophy by morphometry analysis in SHR; assay type: in vivo, rat; settings: SHR, 1,200 ng/kg/min, 14 days, left ventricle
Experimental: as §1
Measurement of cardiac hypertrophy by morphometry analysis. […] Cardiomyocyte size (area and perimeter) was determined as described by Ocaranza et al. (J. Hypertens. 2010; 28:1054-1064). […]

Compound: CC[C@@H](C)[C@@H](NC(=O)[C@@H](Cc1c[nH]cn1)NC(=O)[C@H]1CCCN1C(=O)[C@@H](Cc1ccccc1)NC(=O)[C@H](N)Cc1c[nH]cn1)C(=O)N[C@H](Cc1ccc(O)cc1)C(=O)N[C@@H](C(=O)N[C@H](CCCNC(=N)N)C(=O)N[C@H](CC(=O)O)C(=O)O)C(C)C [retro-inverse angiotensin-(1-9), NH2-^DH^DF^DP^DH^DI^DY^DV^DR^DD-COOH] (H-[dH][dF][dP][dH][dI][dY][dV][dR][dD]-OH)
- increase of cell area induced by norepinephrine (cardiomyocytes): inhibited, in a dose response manner
- increase of cell perimeter induced by norepinephrine (cardiomyocytes): inhibited, in a dose response manner
- diastolic blood pressure (DBP) [1]: reduced SBP and DBP in a dose-dependent manner
- systolic blood pressure (SBP) [1]: reduced SBP and DBP in a dose-dependent manner
- increase of area of cardiomyocytes induced by hypertension [2]: reversed the increase
- increase of perimeter of cardiomyocytes induced by hypertension [2]: reversed the increase
